Measured values taken from patent publication US6642209B1, “Use of adenosine compounds to alleviate or normalize pathologically hyperexcited sensory nerve function in a human patient” (priority 1990, dated 2003).

Tests used:
[1] = Anesthesia score chart comparing anesthetic agents for the four components of anesthesia (Table 1); design: key: 0 no effect; 1 minimal; 2 mostly; 3 maximal; settings: for Antinociception (analgesia, less pain perception) / Inhibition of Stress (autonomic responses: blood pressure, heart rate; endocrine and metabolic responses) / Muscle Relaxation / Sleep (unconsciousness, amnesia, sedation): Anesthesia Score 0 to 3; for TOTALS of Anesthesia Score: sum of the four components
rabbits [2] = assay: Analgesic activity of adenosine compared with morphine sulfate, tail/ear clamp and electrical stimulation
rabbits [3] = assay: Replacement of enflurane anesthesia by ATP infusion, electrical tail stimulation and tail clamp
[4] = test system: New Zealand white rabbits; assay: Electrical tail stimulation screening: head lift (hypnotic) and escape movement (analgesic) thresholds; assay type: in vivo, rabbit; settings: increasing doses, 60% N2O baseline sedation, FIG. 1
[5] = under 60% N2O, n = 6, Mean ± SD
[6] = N2O 60%, ENF 2.0-[…], ATP 362 ± 164 μg/kg/min, Mean ± SD, n = 6

[N-]=[N+]=O [Nitrous Oxide, nitrous oxide]
Antinociception (analgesia, less pain perception) [1]: 1 | Inhibition of Stress (autonomic responses: blood pressure, heart rate; endocrine and metabolic responses) [1]: 1 | Muscle Relaxation [1]: 0 | Sleep (unconsciousness, amnesia, sedation) [1]: 1 | TOTALS of Anesthesia Score [1]: 3

CN1CC[C@]23c4c5ccc(O)c4O[C@H]2[C@@H](O)C=C[C@H]3[C@H]1C5.O=S(=O)(O)O [morphine sulfate]
suppression of responses to stimulation (rabbits [2]; titrated IV to 2 mg/kg, under 60% N2O): no animal had complete suppression of all responses | BP (Systolic BP) (rabbits [2]; [5]): 105 ± 14 mmHg | HR (rabbits [2]; [5]): 242 ± 72 bpm | PaCO2 (rabbits [2]; [5]): 31 ± 3 mmHg | PaO2 (rabbits [2]; [5]): 123 ± 14 mmHg | RR (Respiratory Rate) (rabbits [2]; [5]): 47 ± 16 bpm

FC(F)OC(F)(F)C(F)Cl (centres unmarked) [ENF, enflurane, reference compound]
DBP (rabbits [3]; [6]): 49 ± 18 mmHg | HR (rabbits [3]; [6]): 255 ± 33 bpm | PaCO2 (rabbits [3]; [6]): 25 ± 1 mmHg | PaO2 (rabbits [3]; [6]): 148 ± 16 mmHg | RR (Respiratory Rate) (rabbits [3]; [6]): 72 ± 19 bpm | SBP (rabbits [3]; [6]): 69 ± 22 mmHg | ENF level that completely inhibits responses to tail clamp (rabbits [3]; under 60% N2O): 2-2.5% | Antinociception (analgesia, less pain perception) [1]: 1 | Inhibition of Stress (autonomic responses: blood pressure, heart rate; endocrine and metabolic responses) [1]: 1 | Muscle Relaxation [1]: 1 | Sleep (unconsciousness, amnesia, sedation) [1]: 3 | TOTALS of Anesthesia Score [1]: 6

FC(F)(F)C(Cl)Br (centres unmarked) [halothane]
Antinociception (analgesia, less pain perception) [1]: 1 | Inhibition of Stress (autonomic responses: blood pressure, heart rate; endocrine and metabolic responses) [1]: 1 | Muscle Relaxation [1]: 1 | Sleep (unconsciousness, amnesia, sedation) [1]: 3 | TOTALS of Anesthesia Score [1]: 6 | EM (purposeful escape movement, analgesic) threshold responses [4]: consistently elevated | HL (head lift, hypnotic) threshold responses [4]: consistently elevated

Cn1c(=O)c2[nH]cnc2n(C)c1=O [aminophylline, reference compound]
reversal of sustained analgesia after discontinuation of ATP (rabbits [3]; IV aminophylline): partially reversed | reversal of adenosine induced analgesia (rabbits [2]; aminophylline 5-10 mg/kg): consistently reversed
